In DBAASP one finds MIC data, which are given here for 6 compounds.

Among the test systems are Staphylococcus aureus; Escherichia coli B; Bacillus subtilis 168; Pseudomonas aeruginosa; Bacillus subtilis; Escherichia coli.
Common to all, as to assay: ≥ marks a high value that may be exact or a test limit, other limits are often not marked, values filed in µg/mL are converted to µM

Values after ≈ are worked out from the molar mass of the structure shown.

With `CC[C@H](C)[C@H](NC(=O)[C@H](CCCCN)NC(=O)[C@H](CO)NC(=O)[C@H](Cc1c[nH]c2ccccc12)NC(=O)[C@H](CCSC)NC(=O)CN)C(=O)N[C@@H](CC(C)C)C(=O)NCC(=O)N[C@@H](Cc1cnc[nH]1)C(=O)N[C@@H](CC(C)C)C(N)=O` [GMWSKILGHL], the MIC – broadly, the least concentration at which growth counts as inhibited – with Staphylococcus aureus was > 100 µM; against Escherichia coli B, ≥ 100 µM; against Bacillus subtilis 168 it was 22.5 µM (≈ 25.7 µg/mL); in the assay on Pseudomonas aeruginosa, > 100 µM.
Turning to `CC[C@H](C)[C@H](NC(=O)[C@H](CCCCN)NC(=O)[C@H](CCCCN)NC(=O)[C@H](Cc1c[nH]c2ccccc12)NC(=O)[C@H](CC(N)=O)NC(=O)[C@@H](N)C(C)C)C(=O)N[C@@H](CC(C)C)C(=O)N[C@@H](C)C(=O)N[C@@H](CCCCN)C(=O)N[C@H](C(=O)N[C@H](C(=O)N[C@@H](CCCCN)C(=O)N[C@H](C(=O)N[C@@H](C)C(=O)N[C@@H](CCCCN)C(N)=O)C(C)C)[C@@H](C)CC)[C@@H](C)CC` [VNWKKILAKIIKVAK], the MIC was 4.3 µM (≈ 7.53 µg/mL) against Staphylococcus aureus, 0.7 µM (≈ 1.23 µg/mL) against Escherichia coli B, 0.7 µM (≈ 1.23 µg/mL) in the assay with Bacillus subtilis 168 and 22.5 µM (≈ 39.4 µg/mL) in the assay on Pseudomonas aeruginosa.
On to `CC[C@H](C)[C@H](NC(=O)[C@H](CCCCN)NC(=O)[C@H](CCCCN)NC(=O)[C@H](Cc1c[nH]c2ccccc12)NC(=O)[C@H](CC(N)=O)NC(=O)[C@@H](N)C(C)C)C(=O)N[C@@H](CC(C)C)C(=O)N[C@@H](C)C(=O)N[C@@H](CCCCN)C(=O)N[C@H](C(=O)N[C@H](C(=O)N[C@@H](CCCCN)C(=O)N[C@H](C(=O)N[C@H](C(=O)N[C@@H](CCCCN)C(N)=O)C(C)C)C(C)C)[C@@H](C)CC)[C@@H](C)CC` [VNWKKILAKIIKVVK], for which the MIC is 2.2 µM (≈ 3.91 µg/mL) in the assay on Staphylococcus aureus, 1.4 µM (≈ 2.49 µg/mL) in the assay on Escherichia coli B, 0.6 µM (≈ 1.07 µg/mL) in the assay with Bacillus subtilis 168 and 27.1 µM (≈ 48.2 µg/mL) against Pseudomonas aeruginosa.
The corresponding values for `CC[C@H](C)[C@H](NC(=O)[C@H](Cc1cnc[nH]1)NC(=O)[C@H](CCCCN)NC(=O)[C@H](CC(C)C)NC(=O)[C@H](CC(C)C)NC(=O)[C@H](CO)NC(=O)[C@H](CCSC)NC(=O)[C@H](Cc1c[nH]c2ccccc12)NC(=O)[C@H](CCCCN)NC(=O)[C@@H](N)CCCCN)C(=O)N[C@@H](CC(C)C)C(=O)N[C@@H](CCCCN)C(N)=O` [KKWMSLLKHILK] are 28.3 µM (≈ 43.1 µg/mL), 3 µM (≈ 4.57 µg/mL), 1.1 µM (≈ 1.68 µg/mL) and 25 µM (≈ 38.1 µg/mL).
Consider `CC[C@H](C)[C@H](NC(=O)[C@H](CO)NC(=O)[C@H](C)NC(=O)[C@@H](NC(=O)[C@H](CCCCN)NC(=O)[C@H](CCCCN)NC(=O)[C@@H](N)Cc1c[nH]c2ccccc12)[C@@H](C)CC)C(=O)NCC(=O)N[C@@H](CCCCN)C(=O)N[C@@H](CCC(=O)O)C(=O)N[C@H](C(=O)N[C@@H](CC(C)C)C(=O)N[C@@H](CCCCN)C(=O)N[C@@H](C)C(=O)N[C@@H](CC(C)C)C(N)=O)C(C)C` [WKKIASIGKEVLKAL], for which the MIC against Bacillus subtilis is ≥ 125 µM; against Escherichia coli, 62 µM (≈ 104 µg/mL).
For `CC[C@H](C)[C@H](NC(=O)[C@H](CO)NC(=O)[C@H](CC(C)C)NC(=O)[C@H](Cc1ccccc1)NC(=O)CN)C(=O)N[C@@H](CC(C)C)C(=O)N[C@@H](CCCCN)C(=O)N[C@@H](CCCCN)C(=O)N[C@H](C(=O)N[C@@H](CC(C)C)C(=O)NCC(=O)N[C@@H](CCCCN)C(=O)N[C@H](C(=O)N[C@@H](CCSC)C(=O)N[C@@H](C)C(=O)N[C@@H](Cc1cnc[nH]1)C(=O)N[C@@H](CCSC)C(=O)N[C@@H](CCCCN)C(N)=O)C(C)C)C(C)C` [GFLSILKKVLGKVMAHMK], the MIC worked out at 4.3 µM (≈ 8.6 µg/mL) against Staphylococcus aureus, 1.8 µM (≈ 3.6 µg/mL) with Escherichia coli B, 1.3 µM (≈ 2.6 µg/mL) against Bacillus subtilis 168 and 14.4 µM (≈ 28.8 µg/mL) in the assay with Pseudomonas aeruginosa.
